ChEMBL document CHEMBL1212743, “Absorption, pharmacokinetics, and safety of triclosan after dermal administration” (Antimicrob Agents Chemother, 2010)

Assays:
Format in all cases: ADME, organism-based
[1] = Apparent half-life of the terminal disposition phase half life in percutaneously dosed healthy human at 1166 mg; conditions: in vivo, topical or ocular, read-out: t1/2 lambda z (converted)
[2] = Excretion in percutaneously dosed healthy human urine at 1166 mg up to 48 hrs; conditions: topical or ocular, read-out: Activity
Homo sapiens = test: Time to reach maximum urine excretion rate in percutaneously dosed healthy human at 1166 mg; conditions: in vivo, topical_or_ocular
[3] = Absorption in percutaneously dosed healthy human at 1166 mg; conditions: in vivo, topical or ocular, read-out: Activity

For Oc1cc(Cl)ccc1Oc1ccc(Cl)cc1Cl [TRICLOSAN], the half-life [1] was 648 min, the dose excreted at 48 h [2] was 4.9% and the Time (Homo sapiens) was 11 h. For the same compound, the Fa [3] was 5.9%.
